Results as given in US5908868A, “Retinol derivatives useful for enhancing immune response” (priority 1995, dated 1999).
Each block holds one molecule with its values, some of them ahead of it.

Assays:
EL-4 = test: Retinol metabolism; format: in vitro ADME, mouse
Protocol: (§1) FBS. The FBS was preincubated at room temperature with 14.4 uCi [^3 H
(§2) retinol (NEN) for 4 h. The cell pellet was washed twice with PBS. The
(§3) retinoid were extracted according to MClean et al. 90 and separated on an
(§4) analytical c18 reverse phase column according to FIG. 7. The DPM wer
(§5) determined using an online scintillation counter.

P388D.1 = test: Retinol metabolism; format: in vitro ADME, mouse
Protocol: as §1, §2, §3, §4, §5

SLA = test: Retinol metabolism; format: in vitro ADME, mouse
Protocol: as §1, §2, §3, §4, §5

SK3886 = test: Retinol metabolism; format: in vitro ADME
Protocol: as §1, §2, §3, §4, §5

ERLD = test: Retinol metabolism; format: in vitro ADME
Protocol: as §1, §2, §3, §4, §5

RPMI = test: Retinol metabolism; format: in vitro ADME; settings: RPMI leukemia (ALL)
Protocol: as §1, §2, §3, §4, §5

thymocytes [1] = test: Proliferation of Con A activated thymocytes in serum-free medium; format: cell-based, BALB/c mouse; settings: Con A 0.5 μg/ml, retinol 3×10^-6 M, ITLB
Protocol: Purified thymocytes (5×10^5 cells/well) were stimulated by TCR crosslinking with immobilized anti-CD3e antibody (FIG. 15A) or 0.4 μg/ml Con A (FIG. 15B) in serum-free ITLB medium. The indicated amounts of retinoids were added either once at the beginning of the experiment (marked as "1x") or every 12 hours thereafter (marked as "6x"). DNA synthesis was measured after 72 hours by tritiated thymidine uptake as described.
Thymuses of 3 to 6-week-old BALB/c mice were teased in serum-free RPMI medium supplemented with 1% BSA, 10^-6 M linoleic acid and antibiotics. […] Cell viability was evaluated by trypan blue dye exclusion. To determine the extent of depletion of accessory cells, samples were stained with FITC-conjugated anti-Fc receptor antibody and analyzed by flow cytometry on a FACScan instrument (Becton Dickinson). No FcR-bearing cells were detected by this procedure.
Cells were cultured in serum-free medium, referred to as ITLB, containing RPMI 1640 supplemented with 8×10^-7 M insulin (5 μg/ml), 7×10^-8 M transferrin (5 μg/ml), 2×10^-6 M linoleic acid, 2×10^-6 M delipidated BSA (0.12 mg/ml), 2 mM L-glutamine, 1 mM sodium pyruvate and antibiotics. […] The optimal concentration for stimulation of T cells was determined for each batch of anti-CD3 mAb and Con A. The optimal range of Con A was particularly narrow in serum-free medium (0.5-0.2 μg/ml) and varied with the cell density used. […]

thymocytes [2] = test: Growth-stimulating effect of retinol on anti-CD3 activated thymocytes in the presence of interleukins; format: cell-based, BALB/c mouse; settings: 3 days
[3] = Chemical stability during extraction; format: physicochemical
Reversion to retinol = format: in vitro ADME

- Total cts. (EL-4; EL-4): 2.8 × 10^5 cts.
- Ester (% of taken up retinol) (EL-4; EL-4, overnight): 44%
- P3 (% of taken up retinol) (EL-4; EL-4, overnight): 5%
- Retinol (% of taken up retinol) (EL-4; EL-4, overnight): 40%
- Total cts. (P388D.1; P388D.1): 1.4 × 10^5 cts.
- Ester (% of taken up retinol) (P388D.1; P388D.1, overnight): 26%
- P3 (% of taken up retinol) (P388D.1; P388D.1, overnight): 0.5%
- Retinol (% of taken up retinol) (P388D.1; P388D.1, overnight): 71%
- Total cts. (SLA): 6.1 × 10^5 cts.
- Ester (% of taken up retinol) (SLA; overnight): 9%
- P3 (% of taken up retinol) (SLA; overnight): 3%
- Retinol (% of taken up retinol) (SLA; overnight): 85%
- Total cts. (SK3886; SK3886): 4.7 × 10^5 cts.
- Ester (% of taken up retinol) (SK3886; SK3886, overnight): 2%
- P3 (% of taken up retinol) (SK3886; SK3886, overnight): 3%
- Retinol (% of taken up retinol) (SK3886; SK3886, overnight): 92%
- Total cts. (ERLD): 2.8 × 10^5 cts.
- Ester (% of taken up retinol) (ERLD; overnight): 20%
- P3 (% of taken up retinol) (ERLD; overnight): 9%
- Retinol (% of taken up retinol) (ERLD; overnight): 63%
- Total cts. (RPMI): 1.2 × 10^5 cts.
- Ester (% of taken up retinol) (RPMI; overnight): 38%
- P3 (% of taken up retinol) (RPMI; overnight): 2%
- Retinol (% of taken up retinol) (RPMI; overnight): 58%
SMILES: CC1=C(/C=C/C(C)=C/C=C/C(C)=C/CO)C(C)(C)CCC1 [retinol, all-trans retinol]
- thymocyte proliferation (thymocytes [1]): growing exponentially
- CPM anti-CD3, 10^-6 M Retinol (thymocytes [2]): 79,247 ± 17,567 CPM

- stability in chloroform ([3]; chloroform): unstable in chloroform
- reversion to retinol (Reversion to retinol): does not revert to retinol
SMILES: CC(C=CC=C(C)C(O)CO)=CC=C1C(C)=CCCC1(C)C (centres unmarked) [14HRR, 14-hydroxy-4,14-retro-retinol]
- stability to acid extraction ([3]; acid extraction step): does not survive an acid extraction step
